Biological target: T1, human alpha-7 nAChR (Homo sapiens, UniProt P36544)
T1 construct: expressed in transfected cells; host or cells: Xenopus laevis oocytes (cRNA injection)
Assay: Two-electrode voltage clamp of alpha-7 nAChR expressed in Xenopus oocytes (net charge)
Type: cell-based
Conditions: area under the curve of current vs. time; for Charge Alone: compound alone acting as an allosteric agonist; for Charge +C: compound together with choline or ACh, includes PAM and ago-PAM activity; call rule not given here
How it was run: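 Human α7 nAChR co-expressed with RIC-3 in Xenopus oocytes; two-electrode clamp at −60 mV, 12 s applications in Ringer's pH 7.3. Net charge integrated over 120 s from application, normalized to prior ACh controls; measured for compound alone and with choline or ACh; n≥4 oocytes.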

T1 sequence (P36544 23-502): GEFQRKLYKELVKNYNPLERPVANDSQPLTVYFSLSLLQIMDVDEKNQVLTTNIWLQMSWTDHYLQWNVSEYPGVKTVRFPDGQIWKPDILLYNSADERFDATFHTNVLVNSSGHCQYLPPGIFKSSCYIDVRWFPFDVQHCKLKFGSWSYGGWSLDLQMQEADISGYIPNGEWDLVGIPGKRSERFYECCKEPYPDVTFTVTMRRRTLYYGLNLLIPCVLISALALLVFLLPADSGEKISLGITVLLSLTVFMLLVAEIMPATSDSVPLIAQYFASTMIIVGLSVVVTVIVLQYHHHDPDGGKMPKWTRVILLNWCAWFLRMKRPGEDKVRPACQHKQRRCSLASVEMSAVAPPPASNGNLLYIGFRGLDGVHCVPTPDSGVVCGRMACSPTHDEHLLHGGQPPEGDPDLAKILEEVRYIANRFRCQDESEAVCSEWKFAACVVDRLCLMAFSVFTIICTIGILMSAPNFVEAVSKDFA

| Charge Alone | Charge +C | SMILES |
| --- | --- | --- |
| Inactive | Inactive | CC(C)(C)NS(=O)(=O)c1ccc2c(c1)[C@H]1C=CC[C@H]1[C@@H](c1ccc(Br)cc1)N2 (stereo in doubt) [Compound 101, 4-(4-bromophenyl)-N-(tert-butyl)-3a,4,5,9b-tetrahydro-3H-cyclopenta[c]quinoline-8-sulfonamide] |
| 25 | 582 | CC(C)(C)CC(=O)Oc1ccc([C@H]2Nc3ccc(S(N)(=O)=O)cc3[C@H]3C=CC[C@H]32)cc1 (stereo in doubt) [Compound 69, 4-(8-sulfamoyl-3a,4,5,9b-tetrahydro-3H-cyclopenta[c]quinolin-4-yl)phenyl 3,3-dimethylbutanoate] |
|  | 5.5 | [N-]=[N+]=Nc1c(F)c(F)c([C@H]2Nc3ccc(S(N)(=O)=O)cc3[C@H]3C=CC[C@H]32)c(F)c1F [Compound 43, (3aR,4S,9bS)-4-(4-azido-2,3,5,6-tetrafluorophenyl)-3a,4,5,9b-tetrahydro-3H-cyclopenta[c]quinoline-8-sulfonamide] |
| Inactive | Inactive | CC(=O)NS(=O)(=O)c1ccc2c(c1)[C@H]1C=CC[C@H]1[C@@H](c1ccc(Br)cc1)N2 (stereo in doubt) [Compound 116, N-((4-(4-bromophenyl)-3a,4,5,9b-tetrahydro-3H-cyclopenta[c]quinolin-8-yl)sulfonyl)acetamide] |
| Inactive | Inactive | [N-]=[N+]=Nc1ccc([C@@H]2Nc3ccc(S(N)(=O)=O)cc3[C@@H]3C=CC[C@@H]32)cc1 [Compound 47, (3aS,4R,9bR)-4-(4-azidophenyl)-3a,4,5,9b-tetrahydro-3H-cyclopenta[c]quinoline-8-sulfonamide] |
| 61 |  | [N-]=[N+]=Nc1ccc([C@H]2Nc3ccc(S(N)(=O)=O)cc3[C@H]3C=CC[C@H]32)cc1 (stereo in doubt) [Compound 25, 4-(4-azidophenyl)-3a,4,5,9b-tetrahydro-3H-cyclopenta[c]quinoline-8-sulfonamide] |
| Inactive | Inactive | O=S(=O)(NC1CCCCC1)c1ccc2c(c1)[C@H]1C=CC[C@H]1[C@@H](c1ccc(Br)cc1)N2 (stereo in doubt) [Compound 102, 4-(4-bromophenyl)-N-cyclohexyl-3a,4,5,9b-tetrahydro-3H-cyclopenta[c]quinoline-8-sulfonamide] |
|  | 250 | Nc1ccc([C@H]2Nc3ccc(S(N)(=O)=O)cc3[C@H]3C=CC[C@H]32)cc1 (stereo in doubt) [Compound 18, 4-(4-aminophenyl)-3a,4,5,9b-tetrahydro-3H-cyclopenta[c]quinoline-8-sulfonamide] |

The remaining lines, values behind:

| SMILES | Charge Alone | Charge +C |
| --- | --- | --- |
| NS(=O)(=O)c1ccc2c(c1)[C@H]1C=CC[C@H]1[C@@H](c1ccc(NC(=O)OC3C4CC5CC(C4)CC3C5)cc1)N2 (stereo in doubt) [Compound 63, adamantan-2-yl (4-(8-sulfamoyl-3a,4,5,9b-tetrahydro-3H-cyclopenta[c]quinolin-4-yl)phenyl)carbamate] | 5 | 25 |
| NS(=O)(=O)c1ccc2c(c1)[C@H]1C=CC[C@H]1[C@@H](c1cc(Br)sc1Br)N2 [Compound 67, (3aR,4S,9bS)-4-(2,5-dibromothiophen-3-yl)-3a,4,5,9b-tetrahydro-3H-cyclopenta[c]quinoline-8-sulfonamide] |  | 100 |
| NS(=O)(=O)c1ccc2c(c1)[C@H]1C=CC[C@H]1[C@@H](c1ccc(Br)nc1)N2 [Compound 94, 4-(6-bromopyridin-3-yl)-3a,4,5,9b-tetrahydro-3H-cyclopenta[c]quinoline-8-sulfonamide] | 29 | 348 |
| NS(=O)(=O)c1ccc([C@H]2Nc3ccc(S(N)(=O)=O)cc3[C@H]3C=CC[C@H]32)cc1 (stereo in doubt) [Compound 28, 4-(4-sulfamoylphenyl)-3a,4,5,9b-tetrahydro-3H-cyclopenta[c]quinoline-8-sulfonamide] |  | 128 |
| NS(=O)(=O)c1ccc2c(c1)[C@H]1C=CC[C@H]1[C@@H](c1cccs1)N2 (stereo in doubt) [Compound 17, 4-(thiophen-2-yl)-3a,4,5,9b-tetrahydro-3H-cyclopenta[c]quinoline-8-sulfonamide] | 0.031 | 21.096 |
| NS(=O)(=O)c1ccc2c(c1)[C@H]1C=CC[C@H]1[C@@H](c1ccncc1)N2 (stereo in doubt) [Compound 2, 4-(pyridin-4-yl)-3a,4,5,9b-tetrahydro-3H-cyclopenta[c]quinoline-8-sulfonamide] | Inactive | Inactive |
| NS(=O)(=O)c1ccc2c(c1)[C@H]1CCC[C@H]1[C@@H](c1ccc(Br)cc1)N2 (stereo in doubt) [Compound 5, 4-(4-bromophenyl)-2,3,3a,4,5,9b-hexahydro-1H-cyclopenta[c]quinoline-8-sulfonamide] | 23 | 93 |
| CC(C)OC(=O)Nc1ccc([C@H]2Nc3ccc(S(N)(=O)=O)cc3[C@H]3C=CC[C@H]32)cc1 (stereo in doubt) [Compound 68, isopropyl (4-(8-sulfamoyl-3a,4,5,9b-tetrahydro-3H-cyclopenta[c]quinolin-4-yl)phenyl)carbamate] | 80 | 156 |
| CC(C)NS(=O)(=O)c1ccc2c(c1)[C@H]1C=CC[C@H]1[C@@H](c1ccc(Br)cc1)N2 (stereo in doubt) [Compound 100, 4-(4-bromophenyl)-N-isopropyl-3a,4,5,9b-tetrahydro-3H-cyclopenta[c]quinoline-8-sulfonamide] | Inactive | Inactive |
| NS(=O)(=O)c1cccc2c1N[C@H](c1ccc(Br)cc1)[C@@H]1CC=C[C@H]21 (stereo in doubt) [Compound 11, 4-(4-bromophenyl)-3a,4,5,9b-tetrahydro-3H-cyclopenta[c]quinoline-6-sulfonamide] | Inactive | Inactive |
| NS(=O)(=O)c1ccc2c(c1)[C@H]1C=CC[C@H]1[C@@H](c1csc(Br)c1)N2 (stereo in doubt) [Compound 35, 4-(5-bromothiophen-3-yl)-3a,4,5,9b-tetrahydro-3H-cyclopenta[c]quinoline-8-sulfonamide] |  | 157 |
| CC(C)(C)COC(=O)c1ccc([C@H]2Nc3ccc(S(N)(=O)=O)cc3[C@H]3C=CC[C@H]32)cc1 (stereo in doubt) [Compound 70, neopentyl4-(8-sulfamoyl-3a,4,5,9b-tetrahydro-3H-cyclopenta[c]quinolin-4-yl)benzoate] | 52 | 487 |
| NS(=O)(=O)c1ccc2c(c1)[C@H]1C=CC[C@H]1[C@@H](c1ccsc1)N2 (stereo in doubt) [Compound 15, 4-(thiophen-3-yl)-3a,4,5,9b-tetrahydro-3H-cyclopenta[c]quinoline-8-sulfonamide] |  | 500 |
| NS(=O)(=O)c1ccc2c(c1)[C@H]1OCC[C@H]1[C@@H](c1ccc(Br)cc1)N2 (stereo in doubt) [Compound 3, 4-(4-bromophenyl)-2,3,3a,4,5,9b-hexahydrofuro[3,2-c]quinoline-8-sulfonamide] | Inactive | Inactive |
| NS(=O)(=O)c1ccc2c(c1)[C@H]1C=CC[C@H]1[C@@H](c1ccoc1)N2 (stereo in doubt) [Compound 14, 4-(furan-3-yl)-3a,4,5,9b-tetrahydro-3H-cyclopenta[c]quinoline-8-sulfonamide] | Inactive | Inactive |
| CCC(C)CNS(=O)(=O)c1ccc2c(c1)[C@H]1C=CC[C@H]1[C@@H](c1ccc(Br)cc1)N2 (stereo in doubt) [Compound 109, 4-(4-bromophenyl)-N-(2-methylbutyl)-3a,4,5,9b-tetrahydro-3H-cyclopenta[c]quinoline-8-sulfonamide] | Inactive | Inactive |

— patent publication US11299496B2, “Ligands for alpha-7 nicotinic acetylcholine receptors and methods of treating neurological and inflammatory conditions” (Northeastern University, priority 2014, dated 2022)
